Read-outs that look alike come from different tables or passages of the source.
Columns and labels:
[1] = Previous range-finding tolerability studies, intraperitoneal; assay type: in vivo; details: twice a day (bid) for multiple days
[2] = system: nucleotide phosphodiesterase (PDE); details: non-selective PDE inhibitor; cited from earlier work
[3] = administered systemically; cited from earlier work
[4] = assay type: in vivo, rat; details: normalized to weight at start of morphine
[5] = system: naloxone-precipitated morphine withdrawal syndrome; experiment: Rat model of naloxone-precipitated morphine withdrawal, total withdrawal score (Example 2); assay type: in vivo
Procedure: (§1) Drug stability and concentration were validated by HPLC/MS/MS.
(§2) Pathogen-free adult male Sprague-Dawley rats (280-350 g; Harlan Labs) were used in all experiments. Rats were housed in temperature (23+/×3° C.) and light (12:12 light: dark; lights on at 0700 hr) controlled rooms with standard rodent chow and water available ad libitum. Behavioral testing was performed during the light cycle. Approval of the Institutional Animal Care and Use Committee at University of Colorado was obtained for all procedures.
The schedule for morphine treatment (via subcutaneous injections) was as follows: Day 1: 5 mg/kg at 1000 hr, 5 mg/kg at 1300 hr, 5 mg/kg at 1700 hr; Day 2: 5 mg/kg at 1000 hr, 12.5 mg/kg at 1700 hr; Day 3: 15 mg/kg at 1000 hr; Day 4: 17.5 mg/kg at 1000 hr; Day 5: 5 mg/kg at 1000 hr, 17.5 mg/kg at 1200 hr.
(§3) The withdrawal signs measured were: (1) abnormal posturing (an animal presses his abdomen and lower jaw against the floor of the cage); (2) exploration (an animal circles around the cage, thrusting its head in several directions and examining its surroundings); (3) jumping; (4) cleaning (grooming); (5) rearing (an animal stands on its hindpaws with the forepaws off the ground).
Withdrawal scores were measured by blinded observers in 10 minute blocks for 60 minutes immediately after naloxone precipitated withdrawal was initiated. […]

[6] = system: naloxone-induced behavioral withdrawal signs; experiment: Naloxone-induced withdrawal behavior during microdialysis (Example 3); assay type: in vivo, rat; details: 7.5 mg/kg b.i.d. with morphine, vs PEG-saline vehicle and morphine, FIG. 4
Procedure: (§4) Dopamine release in the nucleus accumbens is thought to mediate the “reward” associated with drugs of abuse. […] After 3 baseline samples (20 minute inter-sample interval), morphine was administered to all rats. Dialysis samples were collected at 20 minute intervals for 180 minutes. To test behavioral withdrawal and reversal of morphine-induced dopamine, all rats were administered the opioid antagonist naloxone after the 60 minute sample time was completed.

[7] = system: naloxone precipitated withdrawal behaviors; experiment: Naloxone precipitated withdrawal behaviors (Example 4); assay type: in vivo, rat; details: for naloxone precipitated withdrawal behaviors: 60 minute observation period, FIG. 5
Procedure: as §3
Withdrawal scores were measured by blinded observers in 10 minute blocks for 60 minutes immediately after naloxone precipitated withdrawal was initiated. The observations were pooled from 1-10 minutes, 11-20 minutes, 21-30 minutes, 31-40 minutes, 41-50 minutes, 51-60 minutes for each individual rat after naloxone administration, giving six time points. The average score (for each time point) for all animals within an experimental group was reported as the “total withdrawal score” in FIGS. 2A-2D.

[8] = Spontaneous opioid withdrawal induced weight loss (Example 5); assay type: in vivo, rat; details: FIG. 9
Procedure: Pathogen-free adult male Sprague-Dawley rats were used in all experiments. Rats (350-375 g at the time of arrival; Harlan Labs, Madison, Wis.) were housed in temperature (23±3° C.) and light (12:12 light:dark; lights on at 0700 hours) controlled rooms with standard rodent chow and water available ad libitum. All procedures were approved by the Institutional Animal Care and Use Committee at the University of Colorado at Boulder. Upon arrival male Sprague Dawley rats (300-400g) were housed individually and allowed to acclimatize to the animal colony telemetry room for one week. 5×90 minute sessions of handling by investigators were performed during the following week. Rats were anesthetized with isoflurane, and emitters for measuring core body temperature ([…], Sun River, Oreg.) were implanted in the peritoneal cavity. Gross motor movement was assessed by telemetry using the same emitters used for recording core body temperature. The emitter had to move for activity to be counted; thus, stationary movements such as grooming were not counted. Activity counts and core body temperature were measured every minute and movement averaged over 120 minutes was calculated (thereby smoothing the data). […] Body weights were recorded prior to each dosing session to allow for accurate dose calculations and to track the opioid induced weight loss (also occurred on days when no dosing was conducted).

activated microglia = details: dose-dependent; cited from earlier work
[9] = Pharmacokinetics and tissue distribution of ibudilast in rat; assay type: in vivo
Procedure: Ibudilast pharmacokinetics and distribution into plasma, muscle, brain, and spinal cord were assessed as follows.
as §1
as §2, with “(23+/−3°” for “(23+/×3°”, “cycle.” for “cycle. Approval of the Institutional Animal Care and Use Committee at University of Colorado was obtained for all procedures.”
Calibration standards in plasma were prepared by diluting each 0.5 mg/ml stock 1 in 100 into rat plasma to 5000 ng/ml (5 μl+495 μl), and then diluted further to 2.29 ng/ml by 3-fold serial dilution with plasma. Standards were used as low, mid and high QC samples, respectively.
Calibration standards, QC and plasma study samples were prepared for HPLC injection by precipitating 25 μl of plasma with three volumes (75 μl) of ice cold acetonitrile containing 50 ng/ml diphenhydramine and 100 ng/ml dextromethorphan as the internal standards. Tissue study samples were prepared for HPLC injection by adding 1 μl of water per mg of tissue plus three volumes (relative to water) of ice cold acetonitrile containing 50 ng/ml diphenhydramine and 100 ng/ml dextromethorphan as the internal standards, then homogenizing with an electric homogenizer.

[10] = system: nucleus accumbens dopamine; experiment: Nucleus accumbens dopamine microdialysis after 5 days of morphine and ibudilast (Example 6); assay type: in vivo, rat; details: for nucleus accumbens dopamine levels: 7.5 mg/kg
Procedure: Pathogen-free adult male Sprague-Dawley rats were used in all experiments. Rats (300-325 g at the time of arrival; Harlan Labs, Madison, Wis.) were housed in temperature (23±3° C.) and light (12:12 light:dark; lights on at 0700 hours) controlled rooms with standard rodent chow and water available ad libitum. All procedures were approved by the Institutional Animal Care and Use Committee at the University of Colorado at Boulder. Upon arrival male Sprague Dawley rats (300-400 g) were housed in pairs and allowed to acclimatize to the animal colony for one week. 5×90 minute sessions of handling by investigators and animal acclimatization to the microdialysis environment were performed during the following week.
Microdialysis guide cannula implantation was performed under halothane anaesthesia. CMA 12 guide cannulae (CMA Microdialysis) were aimed at either the right or left nucleus accumbens (AP=+1.7, LM=±0.8, DV=−6.0) in a counterbalanced fashion. Coordinates were from bregma using the atlas of Paxinos and Watson (1998). The guide cannulae and a tether screw (CMA Microdialysis) were anchored to the skull with three jeweler's screws and dental cement. Rats were individually housed after surgery and allowed to recover for one week.
Animals then began a 7 day dosing regimen (groups of 6 animals at a time, n=10 per treatment group). […] Body weights were recorded prior to each dosing session to allow for accurate dose calculations and to track the opioid induced weight loss.
Microdialysis probes (CMA 12, MW cut-off 20,000 Da, 2 mm active membrane) were inserted into the guide cannulae and rats were placed in separate Plexiglas infusion bowls with food and water available ad libitum. […] Dialysates were analyzed by HPLC within 2 weeks of collection.
Dopamine in the dialysates was determined using an ESA 5600A COULARRAY detector with an ESA 5014B analytical cell and an ESA 5020 guard cell connected to an ESA HR80 column (C18, […], 80×3 mm) which was maintained at 30° C. […] Quantitative comparisons were made with external standards (Sigma-Aldrich, St Louis, Mo.) that were run each day. […]

[11] = system: dopamine release in the nucleus accumbens; experiment: In vivo microdialysis of nucleus accumbens dopamine (Example 3); parameters: species or system rat
Procedure: as §4

[12] = system: microglial activation marker CD11b; experiment: Brain immunohistochemistry and densitometry of microglial activation marker (Example 4); assay type: in vivo, rat; details: chronic morphine administration, FIG. 6
Procedure: Immunoreactivity for OX-42 (antibody that recognizes complement type 3 receptors, e.g., CD11b) and/or glial fibrillary acidic protein (GFAP), microglial and astrocyte activation markers, respectively, were assessed. Sections (20 μm) were treated with 0.3% H2O2 in Tris-buffered saline (TBS) for 20 minutes at room temperature to suppress endogenous peroxidase activity. Sections were then incubated overnight at 4° C. in monoclonal mouse anti-rat OX-42 (1:100; Pharmingen, San Diego, Calif.) or monoclonal mouse anti-rat GFAP antibody (1:200; Chemicon, Temecula, Calif.) in TBS with 2% normal goat serum and 0.5% Triton-X-100. Subsequently, sections were incubated with the appropriate secondary biotinylated antibodies (1:400; Jackson ImmunoResearch, West Grove, Pa.) for 2 hours at room temperature, incubated in avidin -biotin complex solution (ABC; 1:200; Vector Laboratories, Burlingame, Calif.) for 2 hours at room temperature, followed by reaction with 0.5 mg/ml 3,3′-diaminobenzidine tetrahydrochloride (DAB; Sigma). Finally, sections were dried, dehydrated, and coverslipped with Permount. Staining was evaluated by light microscopy. Densitometry of immunohistochemical staining was subsequently evaluated using computer software (NIH image).

interleukin-1 mRNA = experiment: mRNA analysis of brain nuclei by real-time PCR (Example 4); assay type: in vivo, rat; details: morphine; dorsal and ventral periaqueductal grey region, FIG. 8
Procedure: Following scoring of withdrawal behaviors animals received an intraperitoneal injection of 0.8 ml of 50 mg/ml sodium pentobarbital, and once anesthetized, animals were transcardially perfused. Half of each treatment group were perfused with saline and half with 4% paraformaldehyde. Spinal cord and brains were collected (saline perfusion for protein and mRNA quantification and paraformaldehyde perfusion for immunohistochemistry). Samples collected from saline perfused animals were flash frozen in liquid nitrogen and stored at −80° C. Paraformaldehyde perfused samples were stored in 4% paraformaldehyde for 48 hours and then transferred to 30% sucrose (0.1% azide) until tissue sectioning.
Amplification of cDNA was performed using the [sequence] […] Linearity and efficiency of PCR amplification were assessed using standard curves generated by increasing amounts of cDNA. SYBR green l fluorescence (PCR product formation) was monitored in real time using the MYIQ single color real-time PCR detection system (Bio-Rad). […] Linearity and efficiency of PCR amplification were assessed using standard curves generated by increasing amounts of cDNA. SYBR green 1 fluorescence (PCR product formation) was monitored in real time using the MYIQ single color real-time PCR detection system (Bio-Rad). […]

CC(C)C(=O)c1c(C(C)C)nn2ccccc12 [ibudilast, 2-methyl-1-(2-(1-methylethyl)pyrazolo(1,5-a)pyridin-3-yl)1-propanone]
well-tolerated dose level [1]: up to 15 mg/kg
PDE inhibition profile [2]: most active against PDE-3, PDE-4, PDE-10, and PDE-11
blood-brain barrier passage [3]: crosses the blood-brain barrier when administered systemically
morphine induced weight loss on day 7 ([4]; 2.5 mg/kg ibudilast): 16.6 ± 5.7 g
morphine induced weight loss on day 7 ([4]; 7.5 mg/kg ibudilast): 13.3 ± 7.1 g
total withdrawal score ([5]; high dose 7.5 mg/kg i.p. bid, FIG. 2B, 2D): remarkably attenuated behavioral signs of withdrawal
total withdrawal score ([5]; low dose 2.5 mg/kg i.p. bid, vs saline controls, FIG. 2C): no effect compared to saline controls
naloxone-induced behavioral withdrawal signs [6]: suppressed naloxone-induced behavioral withdrawal signs
naloxone precipitated withdrawal behaviors ([7]; 2.5 mg/kg): dramatic reduction of naloxone precipitated withdrawal behaviors
naloxone precipitated withdrawal behaviors ([7]; 7.5 mg/kg): dramatic reduction of naloxone precipitated withdrawal behaviors
individual withdrawal behaviors ([7]; on an individual behavior basis): reductions in all behaviors except for rearing, exploration and wet dog shakes
spontaneous opioid withdrawal induced weight loss ([8]; higher dose (7.5 mg/kg twice daily)): substantially attenuated weight loss
spontaneous opioid withdrawal induced weight loss ([8]; lower dose (2.5 mg/kg twice daily)): only a trend towards improved weight change
production of inhibitory cytokine and neurotrophic factors (activated microglia): enhanced the production of the inhibitory cytokine, IL-10, and additional neurotrophic factors
production of pro-inflammatory mediators (activated microglia): suppressed the production of nitric oxide (NO), reactive oxygen species, interleukin (IL)-1β, IL-6, and tumor necrosis factor (TNF)
plasma concentration profile ([9]; i.p. 5 mg/kg): declined from Cmax in a biphasic manner
tissue distribution ([9]; i.p. 5 mg/kg, muscle, brain, spinal cord): well distributed to peripheral (e.g. muscle) and central (e.g. brain and spinal cord) tissues
Cmax ([9]; male, Sprague-Dawley, plasma and CNS tissues (brain, spinal cord), ip, i.p. ~5 mg/kg, in 15% ethanol/saline, read-out: maximal concentration (Cmax) in plasma and CNS tissues): ~1000 ng/mL
half-life ([9]; male, Sprague-Dawley, plasma, muscle, brain, spinal cord (all tissue compartments), ip, i.p. 5 mg/kg, all tissue compartments, read-out: elimination half-life): 1.67 to 2.32 h
nucleus accumbens dopamine levels ([10]; during naloxone precipitated opioid withdrawal, FIG. 10): reduced nucleus accumbens dopamine levels
nucleus accumbens dopamine levels ([10]; following morphine administration, spontaneous opioid withdrawal, FIG. 11): also reduced nucleus accumbens dopamine levels
morphine induced nucleus accumbens dopamine increases ([10]; morphine-dependent animals, during morphine administration and withdrawal, FIGS. 10 and 11): dramatically reduced morphine induced nucleus accumbens dopamine increases
dopamine release into the nucleus accumbens in response to morphine ([11]; 7.5 mg/kg b.i.d. co-administered with morphine across 5 days, FIG. 3): suppressed release of dopamine into the nucleus accumbens in response to morphine
basal levels of dopamine ([11]; 7.5 mg/kg b.i.d., baseline samples): did not decrease basal levels of dopamine

C=CCN1CC[C@]23c4c5ccc(O)c4O[C@H]2C(=O)CC[C@@]3(O)[C@H]1C5 [naloxone]
morphine-induced dopamine release after opioid antagonist ([11]; naloxone given after the 60 minute sample): reversed the morphine-induced dopamine release

CN1CC[C@]23c4c5ccc(O)c4O[C@H]2[C@@H](O)C=C[C@H]3[C@H]1C5 [morphine]
CD11b staining after chronic administration [12]: visible upregulation of the microglia activation marker CD11b
interleukin-1 mRNA (interleukin-1 mRNA): dramatic increase in interleukin-1 mRNA in the dorsal, but not the ventral periaqueductal grey region
